Source: US10626094B2 (La Jolla Institute of Allergy & Immunology, priority 2014, dated 2020)
Where two headings read alike, the source gives them in different places.

Experiments:
[1] = hepatic microsomal stability, human liver microsomes; type: in vitro ADME
Source text: (§1) In the course of this investigation many compounds with similar potencies in the LMPTP (OMFP) assay were found. In order to determine which compound would be the best candidate for in vivo studies, an abbreviated ADME panel was ran on these compounds, a tabulation of the most interesting data on this set of compounds is illustrated in Table 3 below. From the hepatic microsome stability data the candidate selected for in vivo studies was Compound D1.
(§2) The microsomal stability assay is commonly used to rank compounds according to their metabolic stability. This assay addresses the pharmacologic question of how long the parent compound will remain circulating in plasma within the body.

[2] = serum creatinine (kidney function) in treated mice; type: in vivo, mouse; settings: treated mice vs vehicle
Method: Serum creatinine levels from mice treated with Compound D1 (ML400) or vehicle (mice shown in FIG. 9) were assessed using the QuantiChrom Creatinine Assay Kit from BioAssay Systems.

[3] = aqueous solubility (buffer pH 5.0-7.4, PBS); type: physicochemical; settings: for solubility: Pion's buffer
[4] = plasma stability, mouse plasma; type: in vitro ADME
Source text: (§3) Plasma stability is a measure of the stability of small molecules and peptides in plasma and is an important parameter, which can strongly influence the in vivo efficacy of a test compound. Drug candidates are exposed to enzymatic processes (proteinases. esterases) in plasma, and they can undergo intramolecular rearrangement or bind irreversibly (covalently) to proteins.

[5] = hepatic microsomal stability, mouse liver microsomes; type: in vitro ADME
Source text: as §1, §2

[6] = serum alanine transaminase / aspartate transaminase (liver function) in treated mice; type: in vivo, mouse; settings: treated mice vs vehicle
Method: Serum alanine transaminase or aspartate transaminase levels from mice treated with Compound D1 (ML400) or vehicle (mice shown in FIG. 10) were assessed using EnzyChrom Assay Kits from BioAssay Systems.

[7] = target: LMPTP-A (Low Molecular Weight Protein Tyrosine Phosphatase-A) enzyme (Homo sapiens (Human), UniProt P24666); test: LMPTP primary screening / LMPTP (OMFP) enzyme inhibition assay, fluorescence intensity; type: biochemical
Summary of the method: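 Single-concentration screen, test compounds 20 μM final, […]. Enzyme (0.625 nM) and OMFP (400 μM) react 50 min at room temp, dark, in Bis-Tris buffer pH 6.0 containing DTT 1 mM and Triton X-100 0.01%. Read-out: fluorescence intensity.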

[8] = tested on: 3T3-L1 cells; test: insulin-based mouse 3T3-L1 adipogenesis assay (AdipoRed); type: cell-based; settings: 10 μM compound
Method: The probe Compound D1 was also profiled in an insulin-based mouse 3T3-L1 adipogenesis assay. In this assay, 3T3-L1 pre-adipocytes are grown to 2-days post-confluence in DMEM with 10% bovine calf serum, and then induced to differentiate to adipocytes following stimulation for 2 days with an induction cocktail containing 1 μg/ml insulin, 1 μM dexamethasone, and 0.5 mM 3-isobutyl-1-methylxanthine in DMEM containing 10% fetal bovine serum (FBS).^44 2 days later, the media is replaced with DMEM with 10% FBS and 1 μg/ml insulin, and after 2 additional days, the media is replaced with DMEM with 10% FBS for 2 additional days, at which point adipogenesis is measured using the AdipoRed Adipogenesis Assay Reagent from Lonza, according to the manufacturer's instructions. In brief, the assay reagent is added to the wells containing cells, where it partitions into the fat droplets of differentiated adipocytes, and emits fluorescence at 572 nm that can be detected with a plate-reader. To test the effect of probe Compound D1, cells were plated into 48-well plates and allowed to grow to confluence. Cells were then treated with 10 μM Compound D1 or 0.025% DMSO, and after 2 days induced to differentiate in the presence of 10 μM Compound D1 or 0.025% DMSO. Fresh compound or DMSO was added during each media replacement.

[9] = target: LYP-1 (lymphoid phosphatase, LYP) (Homo sapiens (Human), UniProt Q9Y2R2); test: LYP-1 phosphatase selectivity dose response assay; type: biochemical
Source text: Disclosed herein is a collection of small-molecule inhibitors of the low molecular weight protein tyrosine phosphatase (LMPTP). The assays utilized in the primary and secondary screening were designed to identify allosteric inhibitors of LMPTP. […] The structure of the compounds was further optimized to generate a series of inhibitors of LMPTP-A isoform, with high selectivity over the LMPTP-B isoform, LYP and VHR, and with cellular activity. In an aspect is provided a compound having the formula: […]
LYP-1 and VHR-1 dose response assays to assess selectivity of Compound D1 against these non-homologous phosphatases.

[10] = plasma stability, human plasma; type: in vitro ADME
Source text: as §3

LMPTP-A (Low Molecular Weight Protein Tyrosine Phosphatase-A) enzyme, sequence (P24666 whole entry): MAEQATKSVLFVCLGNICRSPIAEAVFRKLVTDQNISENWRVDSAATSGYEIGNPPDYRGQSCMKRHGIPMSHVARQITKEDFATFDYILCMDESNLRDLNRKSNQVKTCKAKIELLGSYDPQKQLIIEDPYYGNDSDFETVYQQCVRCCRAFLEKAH
LYP-1 (lymphoid phosphatase, LYP), sequence (Q9Y2R2 whole entry, species assumed, canonical isoform): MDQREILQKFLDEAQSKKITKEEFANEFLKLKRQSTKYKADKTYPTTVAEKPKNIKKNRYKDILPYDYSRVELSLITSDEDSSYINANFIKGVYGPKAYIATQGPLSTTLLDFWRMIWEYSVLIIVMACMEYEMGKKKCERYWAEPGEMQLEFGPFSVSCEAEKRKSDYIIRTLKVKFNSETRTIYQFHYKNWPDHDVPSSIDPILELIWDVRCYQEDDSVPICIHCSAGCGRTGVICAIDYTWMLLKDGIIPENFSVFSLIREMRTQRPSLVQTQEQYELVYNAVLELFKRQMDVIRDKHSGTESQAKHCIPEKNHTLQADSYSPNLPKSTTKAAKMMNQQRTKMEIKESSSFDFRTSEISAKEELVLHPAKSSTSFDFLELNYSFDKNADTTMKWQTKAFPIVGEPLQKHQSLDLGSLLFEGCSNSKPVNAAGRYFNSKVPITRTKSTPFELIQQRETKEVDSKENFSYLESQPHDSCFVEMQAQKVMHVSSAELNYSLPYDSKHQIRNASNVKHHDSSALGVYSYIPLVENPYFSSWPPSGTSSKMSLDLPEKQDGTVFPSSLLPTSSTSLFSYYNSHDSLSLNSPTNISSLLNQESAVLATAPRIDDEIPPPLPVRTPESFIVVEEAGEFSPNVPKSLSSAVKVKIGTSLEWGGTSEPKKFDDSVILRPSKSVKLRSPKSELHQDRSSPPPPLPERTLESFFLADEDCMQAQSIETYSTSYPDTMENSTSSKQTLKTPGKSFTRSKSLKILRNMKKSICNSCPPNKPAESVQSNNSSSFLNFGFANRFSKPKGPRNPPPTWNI

Hepatic Microsome Stability % Remaining @ 1 hr ([1]; Human microsomes, 1 hr): 61.56% | microsomal stability ([1]; human liver microsomes after 1 hour): moderate stability | kidney function (serum creatinine) [2]: does not Affect Kidney Function | solubility in PBS ([3]; PBS, versus aqueous buffer): comparable | solubility ([3]; aqueous buffer, pH 5.0): > 112 µg/mL | solubility ([3]; pH 6.2, aqueous buffer): > 112 µg/mL | solubility ([3]; pH 7.4, aqueous buffer): > 112 µg/mL | concentration achieved in aqueous buffer ([3]; pH range of 5.0-7.4): 18-20 ×IC50 | Plasma Stability % Remaining @ 3 hrs ([4]; Mouse plasma, 3 hrs): 68.97% | plasma stability ([4]; mouse plasma): good stability | Hepatic Microsome Stability % Remaining @ 1 hr ([5]; Mouse microsomes, 1 hr): 48.75% | microsomal stability ([5]; mouse liver microsomes after 1 hour): moderate stability | liver function (serum alanine transaminase or aspartate transaminase) [6]: does not Affect Liver Function | IC50 ([7]; LMPTP-A, OMFP substrate, method of Example 2, read-out: IC50): 0.801 to 5 µM | IC50 ([7]; Table 2 quinoline series, S sample (synthesized de novo), read-out: LMPTP (OMFP) (IC50)): 1.68 µM | IC50 ([7]; Table 5, n = 4, AID686962, AID743307, read-out: LMPTP IC50): 1.68 ± 0.15 µM | Fold-Selective ([9]; LMPTP over LYP-1): >60-fold | IC50 ([9]; n = 2, AID743309, read-out: Anti-target LYP-1 IC50): > 80 µM | Plasma Stability % Remaining @ 3 hrs ([10]; Human plasma, 3 hrs): 89.03% | plasma stability ([10]; human plasma): good stability
Structure (SMILES): COc1ccc(-c2cc(NCCCN3CCCCC3)c3ccccc3n2)cc1 [Compound D1, 2-(4-methoxyphenyl)-N-(3-(piperidin-1-yl)propyl)quinolin-4-amine]
3T3-L1 adipogenesis [8]: completely abolished
